Laboratory results: ChEMBL document CHEMBL5316318, “Structural Modification and Pharmacological Evaluation of Substituted Quinoline-5,8-diones as Potent NSD2 Inhibitors” (J Med Chem, 2023)
pIC50: −log10 of the molar value. Activity calls are given as the source filed them. The rule behind the calls is not given here.

Legend:
[1] = test system: KMS-11; assay: Antiproliferative activity against human KMS-11 cells assessed as inhibition of cell growth incubated for 6 days by CCK-8 assay; format: functional, cell-based; conditions: KMS-11, 144 h
[2] = test system: KMS-11; assay: Induction of apoptosis in human KMS-11 cells assessed as late apoptotic cells at 0.8 uM incubated for 72 hrs by Annexin V-FITC/PI staining based flow cytometry analysis (reference value: 6.47%); format: functional
[3] = target: Neural cell adhesion molecule 1 (Homo sapiens) (UniProt P13591); assay: Inhibition of NCAM1 transcriptional activation in human KMS-11 cells assessed as reduction in H3K36me2 level in promoter region by ChIP-qPCR analysis; format: cell-based
[4] = test system: KMS-11; assay: Induction of apoptosis in human KMS-11 cells assessed as live cells at 0.8 uM incubated for 72 hrs by Annexin V-FITC/PI staining based flow cytometry analysis (reference value: 83.1%); format: functional
[5] = test system: Daudi; assay: Antiproliferative activity against human Daudi cells assessed as inhibition of cell growth incubated for 6 days by CCK-8 assay; format: functional, cell-based; conditions: 144 h
[6] = test system: KMS-11; assay: Induction of apoptosis in human KMS-11 cells assessed as live cells at 0.2 uM incubated for 72 hrs by Annexin V-FITC/PI staining based flow cytometry analysis (reference value: 83.1%); format: functional
[7] = target: Ras-related protein R-Ras2 (Homo sapiens) (UniProt P62070); assay: Inhibition of RRAS2 transcriptional activation in human KMS-11 cells assessed as reduction in H3K36me2 level in promoter region by ChIP-qPCR analysis; format: cell-based
[8] = target: Histone-lysine N-methyltransferase, H3 lysine-36 specific (Homo sapiens, UniProt Q96L73); assay: Inhibition of NSD1 (unknown origin)
[9] = target: Basement membrane-specific heparan sulfate proteoglycan core protein (Homo sapiens) (UniProt P98160); assay: Inhibition of HSPG2 transcriptional activation in human KMS-11 cells assessed as reduction in HSPG2 mRNA expression at 0.5 uM by qRT-PCR analysis; format: cell-based
[10] = target: Protransforming growth factor alpha (Homo sapiens) (UniProt P01135); assay: Inhibition of TGFA transcriptional activation in human KMS-11 cells assessed as reduction in H3K36me2 level in promoter region by ChIP-qPCR analysis; format: cell-based
[11] = test system: KMS-11; assay: Modulation of FoxO signaling pathway in human KMS-11 cells at 1 uM incubated for 48 hrs by RNA-Seq analysis; format: cell-based; conditions: filed as modulator
[12] = test system: OCI-AML2; assay: Antiproliferative activity against human OCI-AML2 cells harboring wild type NSD2 assessed as inhibition of cell growth incubated for 6 days by CCK-8 assay; format: functional, cell-based; conditions: OCI-AML2, 144 h
[13] = test system: KMS-11; assay: Induction of apoptosis in human KMS-11 cells assessed as dead cells at 0.5 uM incubated for 72 hrs by Annexin V-FITC/PI staining based flow cytometry analysis (reference value: 6.48%); format: functional
[14] = Observed clearance in ICR mouse at 1 mg/kg, iv measured for 24 hrs by LC-MS/MS analysis; format: ADME, organism-based; conditions: in vivo
[15] = target: Histone-lysine N-methyltransferase NSD2 (Homo sapiens) (UniProt O96028); assay: Binding affinity to human recombinant NSD2 (941 to 1240 residues) at 200 uM by CPMG based NMR analysis
[16] = test system: HL-60; assay: Antiproliferative activity against human HL-60 cells harboring wild type NSD2 assessed as inhibition of cell growth incubated for 6 days by CCK-8 assay; format: functional, cell-based; conditions: HL-60, 144 h
[17] = Toxicity in SCID mouse xenografted with human KMS-11 cells assessed as body weight loss at 75 to 150 mg/kg, po administered daily for 21 days and measured every 3 days; format: organism-based; conditions: in vivo, 504 h, dose 75-150 mg/kg, time 21 day
[18] = test system: KMS-11; assay: Induction of apoptosis in human KMS-11 cells assessed as live cells at 0.5 uM incubated for 72 hrs by Annexin V-FITC/PI staining based flow cytometry analysis (reference value: 83.1%); format: functional
[19] = Tmax in ICR mouse at 3 mg/kg, po measured for 24 hrs by LC-MS/MS analysis; format: ADME, organism-based; conditions: in vivo
[20] = target: Hepatocyte growth factor receptor (Homo sapiens) (UniProt P08581); assay: Inhibition of MET transcriptional activation in human KMS-11 cells assessed as reduction in H3K36me2 level in promoter region by ChIP-qPCR analysis; format: cell-based
[21] = Half life in ICR mouse at 3 mg/kg, po measured for 24 hrs by LC-MS/MS analysis; format: ADME, organism-based; conditions: in vivo
[22] = target: Histone-lysine N-methyltransferase NSD2 (Homo sapiens) (UniProt O96028); assay: Binding affinity to human recombinant NSD2 (941 to 1240 residues) at 200 uM by saturation transfer difference based NMR analysis
[23] = test system: KMS-11; assay: Induction of apoptosis in human KMS-11 cells assessed as downregulation of BCL-XL protein expression at 0.2 to 0.8 uM by Western blot analysis; format: functional, cell-based; conditions: dose 0.2-0.8 µM
[24] = test system: KMS-11; assay: Induction of apoptosis in human KMS-11 cells assessed as early apoptotic cells at 0.2 uM incubated for 72 hrs by Annexin V-FITC/PI staining based flow cytometry analysis (reference value: 3.96%); format: functional
[25] = test system: KMS-11; assay: Induction of apoptosis in human KMS-11 cells assessed as upregulation of BID protein expression at 0.2 to 0.8 uM by Western blot analysis; format: functional, cell-based; conditions: dose 0.2-0.8 µM
[26] = test system: RS4-11; assay: Antiproliferative activity against human RS4-11 cells harboring NSD2 E1099K mutant assessed as inhibition of cell growth incubated for 6 days by CCK-8 assay; format: functional, cell-based; conditions: RS4-11, 144 h
[27] = target: Neural cell adhesion molecule 1 (Homo sapiens) (UniProt P13591); assay: Inhibition of NCAM1 transcriptional activation in human KMS-11 cells assessed as reduction in NCAM1 mRNA expression at 0.5 uM by qRT-PCR analysis; format: cell-based
[28] = target: Serine/threonine-protein kinase mTOR (Homo sapiens) (UniProt P42345); assay: Modulation of mTOR signaling pathway in human KMS-11 cells at 1 uM incubated for 48 hrs by RNA-Seq analysis; format: cell-based; conditions: filed as modulator
[29] = target: Protein arginine N-methyltransferase 5 (Homo sapiens, UniProt O14744); assay: Inhibition of PRMT5 (unknown origin) by AlphaLISA assay
[30] = target: Histone-lysine N-methyltransferase EZH2 (Homo sapiens, UniProt Q15910); assay: Inhibition of EZH2 (unknown origin) using SAM as substrate preincubated for 10 mins followed by substrate addition and measured after 4 hrs by HTRF analysis
[31] = Half life in ICR mouse at 1 mg/kg, iv measured for 24 hrs by LC-MS/MS analysis; format: ADME, organism-based; conditions: in vivo
[32] = test system: U2932; assay: Antiproliferative activity against human U2932 cells assessed as inhibition of cell growth incubated for 6 days by CCK-8 assay; format: functional, cell-based; conditions: U2932, 144 h
[33] = Cmax in ICR mouse at 3 mg/kg, po measured for 24 hrs by LC-MS/MS analysis; format: ADME, organism-based; parameters: dose 3 mg/kg, time 24 hrs, route po; conditions: in vivo
[34] = target: Ras-related protein R-Ras2 (Homo sapiens) (UniProt P62070); assay: Inhibition of RRAS2 transcriptional activation in human KMS-11 cells assessed as reduction in RRAS2 mRNA expression at 0.5 uM by qRT-PCR analysis; format: cell-based
[35] = target: Histone-arginine methyltransferase CARM1 (Homo sapiens, UniProt Q86X55); assay: Inhibition of PRMT4 (unknown origin) by AlphaLISA assay
[36] = Apparent permeability coefficient, Papp in MDCK cells; format: ADME, cell-based, Canis lupus familiaris; conditions: dog

Chain of Ras-related protein R-Ras2 (Homo sapiens) (P62070 whole entry): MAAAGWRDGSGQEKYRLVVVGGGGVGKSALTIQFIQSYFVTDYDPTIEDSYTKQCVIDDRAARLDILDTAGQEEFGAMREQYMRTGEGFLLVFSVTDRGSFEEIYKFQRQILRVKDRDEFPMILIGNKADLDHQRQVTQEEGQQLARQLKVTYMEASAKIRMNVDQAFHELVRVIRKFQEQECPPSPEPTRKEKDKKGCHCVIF
Chain of Neural cell adhesion molecule 1 (Homo sapiens) (P13591 whole entry): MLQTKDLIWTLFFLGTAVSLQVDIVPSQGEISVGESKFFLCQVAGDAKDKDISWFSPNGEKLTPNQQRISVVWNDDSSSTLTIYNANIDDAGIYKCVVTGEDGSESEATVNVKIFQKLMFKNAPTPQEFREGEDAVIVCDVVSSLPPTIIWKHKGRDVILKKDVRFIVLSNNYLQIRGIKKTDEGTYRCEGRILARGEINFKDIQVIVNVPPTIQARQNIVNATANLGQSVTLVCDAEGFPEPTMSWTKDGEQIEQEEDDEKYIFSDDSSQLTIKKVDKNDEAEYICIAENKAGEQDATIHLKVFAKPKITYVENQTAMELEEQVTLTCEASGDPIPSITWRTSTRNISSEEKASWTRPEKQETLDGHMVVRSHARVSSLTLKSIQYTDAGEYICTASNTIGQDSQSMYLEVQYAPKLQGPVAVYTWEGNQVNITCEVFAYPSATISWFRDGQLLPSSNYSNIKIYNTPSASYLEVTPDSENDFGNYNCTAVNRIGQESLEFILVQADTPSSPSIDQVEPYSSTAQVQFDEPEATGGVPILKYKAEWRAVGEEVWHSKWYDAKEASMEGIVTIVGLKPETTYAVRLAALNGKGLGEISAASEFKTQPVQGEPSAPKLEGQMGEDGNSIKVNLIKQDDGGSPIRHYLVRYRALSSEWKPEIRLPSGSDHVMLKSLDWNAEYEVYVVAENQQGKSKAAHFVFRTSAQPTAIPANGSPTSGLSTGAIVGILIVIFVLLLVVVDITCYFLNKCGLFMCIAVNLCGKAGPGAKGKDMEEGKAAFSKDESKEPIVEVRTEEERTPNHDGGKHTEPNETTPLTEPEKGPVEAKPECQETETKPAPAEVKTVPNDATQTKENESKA
Chain of Histone-lysine N-methyltransferase NSD2 (Homo sapiens) (O96028 whole entry, the tested form may be a part): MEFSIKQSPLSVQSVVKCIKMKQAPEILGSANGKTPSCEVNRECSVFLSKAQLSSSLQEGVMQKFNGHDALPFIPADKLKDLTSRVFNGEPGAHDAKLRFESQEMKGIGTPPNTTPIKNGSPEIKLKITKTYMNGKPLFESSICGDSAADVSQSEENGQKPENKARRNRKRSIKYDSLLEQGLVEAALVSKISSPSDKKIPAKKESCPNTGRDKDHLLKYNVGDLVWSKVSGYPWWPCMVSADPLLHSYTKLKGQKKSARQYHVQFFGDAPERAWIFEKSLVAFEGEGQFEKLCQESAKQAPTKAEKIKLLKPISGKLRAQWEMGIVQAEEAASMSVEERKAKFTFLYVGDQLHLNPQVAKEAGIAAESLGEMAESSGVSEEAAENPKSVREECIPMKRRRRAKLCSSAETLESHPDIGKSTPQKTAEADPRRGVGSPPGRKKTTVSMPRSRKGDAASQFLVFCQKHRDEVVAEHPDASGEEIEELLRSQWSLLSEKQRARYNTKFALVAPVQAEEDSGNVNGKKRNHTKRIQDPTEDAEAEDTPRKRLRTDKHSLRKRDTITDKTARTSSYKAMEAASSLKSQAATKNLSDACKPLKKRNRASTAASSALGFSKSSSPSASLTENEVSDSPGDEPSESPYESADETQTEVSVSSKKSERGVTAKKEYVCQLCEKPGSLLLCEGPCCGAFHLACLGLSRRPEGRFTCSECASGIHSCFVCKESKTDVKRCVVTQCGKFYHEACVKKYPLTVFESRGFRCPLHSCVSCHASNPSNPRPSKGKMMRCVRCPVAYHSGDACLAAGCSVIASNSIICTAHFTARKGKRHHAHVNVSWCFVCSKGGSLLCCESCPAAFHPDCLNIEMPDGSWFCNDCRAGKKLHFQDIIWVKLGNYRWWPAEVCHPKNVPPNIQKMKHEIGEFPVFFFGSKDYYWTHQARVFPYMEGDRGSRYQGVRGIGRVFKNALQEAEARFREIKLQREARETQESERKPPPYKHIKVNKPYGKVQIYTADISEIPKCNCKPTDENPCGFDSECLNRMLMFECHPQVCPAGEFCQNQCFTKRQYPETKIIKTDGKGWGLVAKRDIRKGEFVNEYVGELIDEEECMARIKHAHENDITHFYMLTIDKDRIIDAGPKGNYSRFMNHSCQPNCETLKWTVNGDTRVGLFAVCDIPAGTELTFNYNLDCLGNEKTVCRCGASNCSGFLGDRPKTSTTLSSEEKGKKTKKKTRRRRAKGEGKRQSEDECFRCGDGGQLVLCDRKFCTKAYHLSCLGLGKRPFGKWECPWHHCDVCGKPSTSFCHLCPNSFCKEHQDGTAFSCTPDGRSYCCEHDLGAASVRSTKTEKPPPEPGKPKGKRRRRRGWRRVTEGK
Chain of Protein arginine N-methyltransferase 5 (O14744 whole entry): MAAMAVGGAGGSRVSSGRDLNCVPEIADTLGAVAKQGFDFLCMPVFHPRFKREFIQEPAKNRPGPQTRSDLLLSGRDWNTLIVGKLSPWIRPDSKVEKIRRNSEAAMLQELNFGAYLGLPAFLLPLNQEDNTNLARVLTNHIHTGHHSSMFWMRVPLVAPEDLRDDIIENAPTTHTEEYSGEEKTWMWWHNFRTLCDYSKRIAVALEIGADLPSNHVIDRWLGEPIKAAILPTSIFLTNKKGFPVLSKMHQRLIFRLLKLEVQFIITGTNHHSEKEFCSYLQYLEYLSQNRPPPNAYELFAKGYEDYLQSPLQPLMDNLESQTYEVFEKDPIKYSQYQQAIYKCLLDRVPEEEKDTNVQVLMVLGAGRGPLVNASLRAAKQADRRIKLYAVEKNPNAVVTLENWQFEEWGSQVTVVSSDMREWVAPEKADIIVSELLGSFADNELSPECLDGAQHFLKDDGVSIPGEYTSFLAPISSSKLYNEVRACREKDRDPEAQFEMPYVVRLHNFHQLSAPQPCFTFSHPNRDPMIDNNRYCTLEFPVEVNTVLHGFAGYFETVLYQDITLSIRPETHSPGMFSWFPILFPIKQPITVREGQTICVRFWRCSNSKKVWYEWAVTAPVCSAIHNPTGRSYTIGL
Chain of Hepatocyte growth factor receptor (Homo sapiens) (P08581 whole entry): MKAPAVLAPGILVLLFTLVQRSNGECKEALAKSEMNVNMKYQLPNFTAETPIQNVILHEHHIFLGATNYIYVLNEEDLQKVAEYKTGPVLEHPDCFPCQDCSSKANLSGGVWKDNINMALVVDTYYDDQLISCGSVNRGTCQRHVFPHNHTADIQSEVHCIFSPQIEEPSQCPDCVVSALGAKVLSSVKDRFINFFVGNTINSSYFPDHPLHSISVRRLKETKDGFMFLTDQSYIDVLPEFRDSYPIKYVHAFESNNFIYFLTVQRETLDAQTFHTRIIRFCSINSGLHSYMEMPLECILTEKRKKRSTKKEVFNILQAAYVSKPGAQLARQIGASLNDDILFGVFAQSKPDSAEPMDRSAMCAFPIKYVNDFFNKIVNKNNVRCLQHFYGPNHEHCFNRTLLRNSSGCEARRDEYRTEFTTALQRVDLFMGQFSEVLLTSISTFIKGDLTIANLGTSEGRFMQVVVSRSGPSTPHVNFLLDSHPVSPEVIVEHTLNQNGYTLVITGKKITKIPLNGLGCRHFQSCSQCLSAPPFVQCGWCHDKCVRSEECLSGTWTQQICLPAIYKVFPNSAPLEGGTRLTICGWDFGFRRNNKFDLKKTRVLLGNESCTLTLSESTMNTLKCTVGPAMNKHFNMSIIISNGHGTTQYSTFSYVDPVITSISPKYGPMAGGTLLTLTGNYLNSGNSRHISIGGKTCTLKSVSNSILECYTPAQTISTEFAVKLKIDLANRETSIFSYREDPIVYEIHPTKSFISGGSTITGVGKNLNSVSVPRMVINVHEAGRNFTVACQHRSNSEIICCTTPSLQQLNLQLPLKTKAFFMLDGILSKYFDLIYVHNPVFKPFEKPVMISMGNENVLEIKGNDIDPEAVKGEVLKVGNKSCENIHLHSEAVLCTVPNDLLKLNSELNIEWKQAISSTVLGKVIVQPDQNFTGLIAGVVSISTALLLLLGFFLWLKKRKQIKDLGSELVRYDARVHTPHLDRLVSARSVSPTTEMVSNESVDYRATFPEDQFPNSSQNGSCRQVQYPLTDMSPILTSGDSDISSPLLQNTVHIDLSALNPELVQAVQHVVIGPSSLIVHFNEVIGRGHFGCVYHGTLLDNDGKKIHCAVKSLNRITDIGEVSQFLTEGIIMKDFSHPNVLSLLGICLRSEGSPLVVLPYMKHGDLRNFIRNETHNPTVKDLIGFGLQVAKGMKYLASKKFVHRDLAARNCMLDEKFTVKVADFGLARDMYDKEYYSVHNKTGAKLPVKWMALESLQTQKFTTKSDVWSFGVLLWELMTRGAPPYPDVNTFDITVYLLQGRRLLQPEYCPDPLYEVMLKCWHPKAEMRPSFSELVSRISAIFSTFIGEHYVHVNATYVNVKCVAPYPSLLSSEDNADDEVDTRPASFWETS
Chain of Histone-arginine methyltransferase CARM1 (Q86X55 whole entry): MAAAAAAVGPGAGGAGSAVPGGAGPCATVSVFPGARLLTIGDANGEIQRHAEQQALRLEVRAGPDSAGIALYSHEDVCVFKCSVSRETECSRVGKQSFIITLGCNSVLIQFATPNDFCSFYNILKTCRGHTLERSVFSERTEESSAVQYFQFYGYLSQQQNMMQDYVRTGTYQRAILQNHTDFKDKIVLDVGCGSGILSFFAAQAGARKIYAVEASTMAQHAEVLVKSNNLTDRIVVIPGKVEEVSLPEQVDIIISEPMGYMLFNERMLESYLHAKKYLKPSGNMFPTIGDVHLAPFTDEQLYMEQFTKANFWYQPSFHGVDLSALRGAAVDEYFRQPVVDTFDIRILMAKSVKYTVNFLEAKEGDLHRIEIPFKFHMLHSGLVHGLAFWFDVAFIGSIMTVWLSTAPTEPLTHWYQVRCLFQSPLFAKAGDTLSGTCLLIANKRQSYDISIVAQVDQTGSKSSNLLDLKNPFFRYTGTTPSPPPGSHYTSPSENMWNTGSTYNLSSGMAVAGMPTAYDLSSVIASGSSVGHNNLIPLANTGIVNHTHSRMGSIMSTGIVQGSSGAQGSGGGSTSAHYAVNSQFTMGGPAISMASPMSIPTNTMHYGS

**Q.** Which results are given for `CC#CC(=O)NC12CC(NC3=C(Cl)C(=O)c4ncccc4C3=O)(C1)C2`?
**A.** pIC50 [1]: 6.57; Activity [2]: 19.7%; inhibition [3]: Active; Activity [4]: 55%; pIC50 [5]: 4.89; Activity [6]: 81.3%; inhibition [7]: Active; pIC50 [8]: 6.16; inhibition [9]: Active; inhibition [10]: Active; Activity [11]: Active; pIC50 [12]: 5.59; Activity [13]: 6.33%; clearance [14]: 0.228 L/h/kg; Activity [15]: Active; pIC50 [16]: 5.58; Activity [17]: Non-Toxic; Activity [18]: 63.8%; Tmax [19]: 1.5 h; inhibition [20]: Active; half-life [21]: 6.71 h; Activity [22]: Active; Activity [23]: Active; Activity [24]: 4.34%; Activity [25]: Active; pIC50 [26]: 6.52; inhibition [27]: Active; Activity [28]: Active; pIC50 [29]: < 5.00; pIC50 [30]: 6.60; half-life [31]: 8.53 h; pIC50 [32]: 5.04; Cmax [33]: 4.78 µg/mL; inhibition [34]: Active; pIC50 [35]: < 5.00; Papp [36]: 450 nm/s
